Reference: ChEMBL document CHEMBL4312025, “Synthesis, antiproliferative activity and DNA/RNA-binding properties of mono- and bis-(1,2,3-triazolyl)-appended benzimidazo[1,2-a]quinoline derivatives” (Eur J Med Chem, 2020)
The source made the active and inactive calls. The rule behind the calls is not given here.

Tests used:
HCT-116 [1] = assay: Growth inhibition of human HCT116 cells incubated for 72 hrs by MTT assay; assay type: functional; conditions: HCT-116, 72 h
MCF7 = assay: Growth inhibition of human MCF7 cells incubated for 72 hrs by MTT assay; assay type: functional; conditions: MCF7, 72 h
NCI-H460 = assay: Growth inhibition of human H460 cells incubated for 72 hrs by MTT assay; assay type: functional; conditions: NCI-H460, 72 h
[2] = Growth inhibition of human HaCaT cells incubated for 72 hrs by MTT assay; assay type: cell-based
Calf thymus DNA [3] = assay: Binding affinity to calf thymus dsDNA assessed as binding constant in sodium cacodylate buffer at pH 7 by fluorescence spectroscopy; assay type: nucleic-acid assay; conditions: Bos taurus
Calf thymus DNA [4] = assay: Binding affinity to calf thymus dsDNA assessed as ratio for bound compound to polynucleotide in sodium cacodylate buffer at pH 7 by fluorescence spectroscopy based Scatchard analysis; assay type: nucleic-acid assay; conditions: Bos taurus
Calf thymus DNA [5] = assay: Binding affinity to calf thymus dsDNA assessed as ratio for fluorescence intensity of compound to fluorescence intensity for compound-polynucleotide complex in sodium cacodylate buffer at pH 7 by fluorescence spectroscopy based Scatchard method; assay type: nucleic-acid assay; conditions: Bos taurus
Calf thymus DNA [6] = assay: Binding affinity to calf thymus dsDNA assessed as change in melting temperature in sodium cacodylate buffer at pH 7 at compound:polynucleotide concentration ratio of 0.2 by thermal denaturation assay; assay type: nucleic-acid assay; conditions: Bos taurus
[7] = system: Poly(dA-dU)oligonucleotide; assay: Binding affinity to polyA-polyU dsRNA (unknown origin) assessed as change in melting temperature in sodium cacodylate buffer at pH 7 at compound:polynucleotide concentration ratio of 0.2 by thermal denaturation assay; assay type: nucleic-acid assay
HCT-116 [8] = assay: Cell cycle arrest in human HCT116 cells at 0.5 to 1 uM incubated for 24 and 48 hrs by propidium iodide staining based flow cytometry; assay type: functional
[9] = Drug uptake in cytoplasm of human H460 cells assessed as perinuclear reticular staining at 1 uM incubated for 15 mins by fluorescence microscopy; assay type: ADME, cell-based; conditions: nci-h460, 0.25 h
[10] = Drug uptake in nucleus of human H460 cells at 1 uM incubated for 15 mins by fluorescence microscopy; assay type: ADME, cell-based; conditions: nci-h460, 0.25 h
[11] = Solubility of the compound in 0.05 M sodium cacodylate buffer with <0.01% DMSO upto 1X10'-5 mol/dm3 by UV/Visible spectra analysis; assay type: physicochemical
Calf thymus DNA [12] = assay: Binding affinity to calf thymus ds-DNA assessed as decrease in emission intensity of the compound in sodium cacodylate buffer at pH 7 at 1X10'-6 mol/dm3 by fluorescence spectroscopy; assay type: nucleic-acid assay; conditions: Bos taurus
[13] = system: Poly(dA-dU)oligonucleotide; assay: Binding affinity to polyA-polyU dsRNA (unknown origin) assessed as decrease in emission intensity of the compound in sodium cacodylate buffer at pH 7 at 1X10'-6 mol/dm3 by fluorescence spectroscopy; assay type: nucleic-acid assay
Calf thymus DNA [14] = assay: Binding affinity to calf thymus dsDNA assessed as stabilization of mixed DNA base pairs in sodium cacodylate buffer at pH 7 at compound:polynucleotide concentration ratio of 0.2 by thermal denaturation assay; assay type: nucleic-acid assay; conditions: Bos taurus
HCT-116 [15] = assay: Cytotoxicity against human HCT116 cells assessed as induction of massive cell death at 5 uM incubated for 24 to 48 hrs; assay type: functional, cell-based
Calf thymus DNA [16] = assay: Binding affinity to calf thymus dsDNA assessed as intercalating activity by measuring weak negative ICD band between 300 and 330 nm in sodium cacodylate buffer at pH 7 at compound:polynucleotide concentration ratio of 0.1 to 0.3 by CD spectroscopy; assay type: nucleic-acid assay; conditions: Bos taurus
[17] = system: Poly(dA-dU)oligonucleotide; assay: Binding affinity to polyA-polyU dsRNA (unknown origin) assessed as intercalating activity by measuring decrease in CD spectra of polynucleotides in sodium cacodylate buffer at pH 7 at compound:polynucleotide concentration ratio of 0.1 to 0.4 by CD spectroscopy; assay type: nucleic-acid assay
Calf thymus DNA [18] = assay: Binding affinity to calf thymus dsDNA assessed as intercalating activity by measuring decrease in CD spectra of polynucleotides in sodium cacodylate buffer at pH 7 at compound:polynucleotide concentration ratio of 0.1 to 0.3 by CD spectroscopy; assay type: nucleic-acid assay; conditions: Bos taurus

| SMILES | GI50 (HCT-116 [1]) [µM] | GI50 (MCF7) [µM] | GI50 (NCI-H460) [µM] | GI50 at 72 h [2] [µM] | further results |
| --- | --- | --- | --- | --- | --- |
| CCCCCc1ccc(-c2cn(-c3c(C#N)c4nc5ccccc5n4c4ccccc34)nn2)cc1 | 34 | 35 | 32 |  |  |
| CCCCCCCCCCc1cn(-c2c(C#N)c3nc4ccccc4n3c3ccccc23)nn1 | 35 | 28.5 | 62 |  |  |
| N#Cc1c(-n2cc(CNS(=O)(=O)c3ccc(F)cc3)nn2)c2ccc(F)cc2n2c1nc1ccccc12 | 2 | 3.9 | 3.4 | 2.9 |  |
| N#Cc1c(-n2cc(CCO)nn2)c2ccccc2n2c1nc1ccccc12 | 3.5 | 4.2 | 13 | 3.3 |  |
| N#Cc1c(-n2cc(-c3ccc(Br)cc3)nn2)c2ccccc2n2c1nc1ccccc12 | 25 | 31 | 59.5 |  |  |
| N#Cc1c(-n2cc(C3CC3)nn2)c2ccc(-n3cc(C4CC4)nn3)cc2n2c1nc1ccccc12 | 1.6 | 3 | 3 | 3.24 |  |
| N#Cc1c(-n2cc(CCO)nn2)c2ccc(-n3cc(CCO)nn3)cc2n2c1nc1ccccc12 | 59 | 35 | ≥ 100 |  |  |
| N#Cc1c(-n2cc(CCO)nn2)c2ccc(F)cc2n2c1nc1ccccc12 | 0.6 | 2 | 1 | 0.73 | log Ks (Calf thymus DNA [3]): 5; Ratio (Calf thymus DNA [4]): 0.08; Ratio (Calf thymus DNA [5]): 0.5; ΔTm (Calf thymus DNA [6]): 1.3 °C; ΔTm [7]: 0 °C; Activity (HCT-116 [8]): Active; Drug uptake [9]: Active; Drug uptake [10]: Not Active; solubility [11]: Soluble; Activity (Calf thymus DNA [12]): Active; Activity [13]: Active; Activity (Calf thymus DNA [14]): Active; Activity (HCT-116 [15]): Active; Activity (Calf thymus DNA [16]): Active; Activity [17]: Active; Activity (Calf thymus DNA [18]): Active |
| CCCCCc1ccc(-c2cn(-c3c(C#N)c4nc5ccccc5n4c4cc(F)ccc34)nn2)cc1 | 7 | 24 | 32 |  |  |
| N#Cc1c(-n2cc(C3CC3)nn2)c2ccccc2n2c1nc1ccccc12 | 10 | 3 | 52 |  |  |
